≈ marks a conversion by molar mass, not a printed value.
System: M17-SYNwt cells
Assay: α-synuclein cytotoxicity assay (LDH leakage from paraquat-treated α-synuclein over-expressing neuroblastoma cells)
Type: cell-based, human
Conditions: paraquat 32 mM, 40 hours, LDH release; for EC50: Homo sapiens, Neuroblastoma cell; for %I: percent inhibition of synuclein cytotoxicity at most effective concentration of test compound, relative to untreated paraquat cells
Method: Subsequently, LDH activity was determined using Promega Cytotox 96 NonRadioactive cytotoxicity assay, (Cat. G1780) according the supplier's instructions.
This corresponds to the following equation: (LDHreleaseoftreatedparaquatcellsatnon-effectiveconcentrationoftestcmpd)−(LDHreleaseoftreatedparaquatcellsatmosteffectiveconcentrationoftestcmpd)/(LDHreleaseofuntreatedparaquatcells)−(LDHreleasecontrolcells)*100% [formula]
1,2,4-thiadazole compounds made according to the methods described herein were screened for activity using the α-synuclein cytotoxicity assay as described above. Dose responses were carried out on all compounds found to be active (10 point curves in duplicate).

| Compound | EC50 (10 point curves in duplicate) | %I | EC50 (µg/mL) (10 point curves in duplicate) |
| --- | --- | --- | --- |
| COc1cccc(S(=O)(=O)N2CCN(c3nc(Cc4ccc(F)cc4)ns3)CC2)c1 [Compound 44, 1-[3-methoxyphenylsulfonyl]-4-[3-(4-fluorobenzyl)-1,2,4-thiadiazol-5-yl]piperazine] | 0.0571 µg/mL (≈ 0.127 µM) | 99% | – |
| N-(2,6-dichlorophenyl)-4-[3-(4-fluorobenzyl)-1,2,4-thiadiazol-5-yl]-2-methylpiperazine-1-carboxamide [Compound 21] | – | 70% | 0,79 µg/mL |
| Cc1ccc(NC(=O)N2CCN(c3nc(Cc4ccc(F)cc4)ns3)CC2C)c(C)c1 (centres unmarked) [Compound 20, N-(2,4-dimethylphenyl)-4-[3-(4-fluorobenzyl)-1,2,4-thiadiazol-5-yl]-2-methylpiperazine-1-carboxamide] | 0.76 µg/mL (≈ 1.73 µM) | 106% | – |
| Cc1ccc(Cc2nsc(N3CCN(S(=O)(=O)c4ccc(C)cc4)C(C)C3)n2)cc1 (centres unmarked) [Compound 50, 1-[4-methylphenylsulfonyl]-4-[3-(4-methylbenzyl)-1,2,4-thiadiazol-5-yl]-2-methylpiperazine] | – | 105% | – |
| CC1CN(c2nc(Cc3ccc(F)cc3)ns2)CCN1C(=O)c1ccc(-c2ccccc2)cc1 (centres unmarked) [Compound 129, 1-(1,1'-biphenyl-4-ylcarbonyl)-4-[3-(4-fluorobenzyl)-1,2,4-thiadiazol-5-yl]-2-methylpiperazine] | 0.24 µg/mL (≈ 0.508 µM) | 61% | – |
| CC1CN(c2nc(Cc3ccc(F)cc3)ns2)CCN1C(=O)Nc1ccccc1C(F)(F)F (centres unmarked) [Compound 18, N-(2-trifluoromethylphenyl)-4-[3-(4-fluorobenzyl)-1,2,4-thiadiazol-5-yl]-2-methylpiperazine-1-carboxamide] | – | 41% | – |
| CC(C)(C)c1ccc(S(=O)(=O)N2CCN(c3nc(Cc4ccc(F)cc4)ns3)CC2)cc1 [Compound 61, 1-[4-ter-butylphenylsulfonyl]-4-[3-(4-fluorobenzyl)-1,2,4-thiadiazol-5-yl]piperazine] | – | 47% | – |
| COc1cccc(Cc2nsc(N3CCN(C(=O)c4ccc(Cl)cc4)C(C)C3)n2)c1 (centres unmarked) [Compound 174, 1-(4-chlorobenzoyl)-4-[3-(3-methoxybenzyl)-1,2,4-thiadiazol-5-yl]-2-methylpiperazine] | – | 83% | – |
| COc1ccc(S(=O)(=O)N2CCN(c3nc(Cc4ccc(F)cc4)ns3)CC2)cc1 [Compound 32, 1-[4-methoxyphenylsulfonyl]-4-[3-(4-fluorobenzyl)-1,2,4-thiadiazol-5-yl]piperazine] | 0.0024 µg/mL (≈ 0.00535 µM) | 78% | – |
| O=S(=O)(c1cc(Cl)ccc1Cl)N1CCN(c2nc(Cc3ccc(Cl)cc3)ns2)CC1 [Compound 39, 1-[2,5-dichlorophenylsulfonyl]-4-[3-(4-chlorobenzyl)-1,2,4-thiadiazol-5-yl]piperazine] | 0.16 µg/mL (≈ 0.318 µM) | 25% | – |
| CCc1ccc(C(=O)NCCN2CCN(c3nc(Cc4ccc(F)cc4)ns3)CC2)cc1 [Compound 103, 4-ethyl-N-{2-[4-[3-(4-fluorobenzyl)-1,2,4-thiadiazol-5-yl]piperazin-1-yl]ethyl}benzamide] | 2.32 µg/mL (≈ 5.11 µM) | 139% | – |
| O=C(Cc1ccc(F)cc1)N1CCN(c2nc(Cc3ccc(F)cc3)ns2)CC1 [Compound 2, 4-(4-fluorophenylacetyl),1-[3-(4-fluorobenzyl)-1,2,4-thiadiazol-5-yl]piperazine] | 0.25 µg/mL (≈ 0.603 µM) | 54% | – |
| COc1ccc(S(=O)(=O)N2CCN(c3nc(Cc4ccccc4C)ns3)CC2)cc1 [Compound 202] | 0.0075 µg/mL (≈ 0.0169 µM) | 63% | – |
| COc1ccc(CC(=O)N2CCN(c3nc(Cc4ccc(F)cc4)ns3)CC2C)cc1 (centres unmarked) [Compound 4, 1-(4-methoxyphenylacetyl)-4-[3-(4-fluorobenzyl)-1,2,4-thiadiazol-5-yl]-2-methylpiperazine] | 0.82 µg/mL (≈ 1.86 µM) | 56% | – |
| CC1CN(c2nc(Cc3ccc(F)cc3)ns2)CCN1S(=O)(=O)c1ccc(F)cc1 (centres unmarked) [Compound 59, 1-[4-fluorophenylsulfonyl]-4-[3-(4-fluorobenzyl)-1,2,4-thiadiazol-5-yl]-2-methylpiperazine] | – | 42% | – |
| CC1CN(c2nc(Cc3ccc(F)cc3)ns2)CCN1C(=O)c1cccc(C(F)(F)F)c1 (centres unmarked) [Compound 145, 1-(3-trifluoromethylbenzoyl)-4-[3-(4-fluorobenzyl)-1,2,4-thiadiazol-5-yl]-2-methylpiperazine] | 0.62 µg/mL (≈ 1.33 µM) | 60% | – |
| CC1CN(c2nc(Cc3ccc(F)cc3)ns2)CCN1C(=O)c1ccccc1Br (centres unmarked) [Compound 148, 1-(2-bromobenzoyl)-4-[3-(4-fluorobenzyl)-1,2,4-thiadiazol-5-yl]-2-methylpiperazine] | 0.86 µg/mL (≈ 1.81 µM) | 56% | – |
| O=C(Cc1ccccc1)NCCN1CCN(c2nc(Cc3ccc(F)cc3)ns2)CC1 [Compound 108, 2-phenyl-N-{2-[4-[3-(4-fluorobenzyl)-1,2,4-thiadiazol-5-yl]piperazin-1-yl]ethyl}acetamide] | 2.06 µg/mL (≈ 4.69 µM) | 63% | – |

| Compound | EC50 (10 point curves in duplicate) | %I | EC50 (µg/mL) (10 point curves in duplicate) |
| --- | --- | --- | --- |
| Fc1ccc(Cc2nsc(N3CCN(c4ccccc4F)CC3)n2)cc1 [Compound 187, 1-(2-fluorophenyl)-4-[3-(4-fluorobenzyl)-1,2,4-thiadiazol-5-yl]piperazine] | 2.81 µg/mL (≈ 7.54 µM) | 83% | – |
| COc1cccc(Cc2nsc(N3CCN(C(=O)c4ccc(C(C)(C)C)cc4)C(C)C3)n2)c1 (centres unmarked) [Compound 146, 1-(4-tert-butylbenzoyl)-4-[3-(3-methoxybenzyl)-1,2,4-thiadiazol-5-yl]-2-methylpiperazine] | 0.72 µg/mL (≈ 1.55 µM) | 94% | – |
| COc1ccc(Cc2nsc(N3CCN(S(=O)(=O)c4ccc(OC)cc4)CC3)n2)cc1 [Compound 205] | 0.0011 µg/mL (≈ 0.00239 µM) | 53% | – |
| Fc1ccc(Cc2nsc(N3CCN(Cc4ccc5c(c4)OCO5)CC3)n2)cc1 [Compound 114, 1-(1,3-benzodioxol-5-ylmethyl)-4-[3-(4-fluorobenzyl)-1,2,4-thiadiazol-5-yl]piperazine] | – | 86% | – |
| COc1cccc(Cc2nsc(N3CCN(C(=O)c4ccccc4F)C(C)C3)n2)c1 (centres unmarked) [Compound 115, 1-(2-fluorobenzoyl)-4-[3-(3-methoxybenzyl)-1,2,4-thiadiazol-5-yl]-2-methylpiperazine] | 0.0361 µg/mL (≈ 0.0846 µM) | 75% | – |
| Cc1ccc(Cc2nsc(N3CCN(C(=O)c4ccccc4F)CC3)n2)cc1 [Compound 175, 1-(2-fluorobenzoyl)-4-[3-(4-methylbenzyl)-1,2,4-thiadiazol-5-yl]piperazine] | – | 78% | – |
| COc1ccc(S(=O)(=O)N2CCN(c3nc(Cc4ccc(F)c(C)c4)ns3)CC2)cc1 [Compound 204] | 0.001 µg/mL (≈ 0.00216 µM) | 90% | – |
| O=C(c1ccccc1F)N1CCN(c2nc(Cc3ccc(Cl)cc3)ns2)CC1 [Compound 159, 1-(2-fluorobenzoyl)-4-[3-(4-chlorobenzyl)-1,2,4-thiadiazol-5-yl]piperazine] | 2.85 µg/mL (≈ 6.84 µM) | 48% | – |
| COc1cc(NC(=O)N2CCN(c3nc(Cc4ccc(F)cc4)ns3)CC2C)cc(OC)c1 (centres unmarked) [Compound 29, N-(3,5-dimethoxyphenyl)-4-[3-(4-fluorobenzyl)-1,2,4-thiadiazol-5-yl]-2-methylpiperazine-1-carboxamide] | – | 51% | – |
| CCC(=O)Oc1ccc(S(=O)(=O)N2CCN(c3nc(Cc4ccc(F)cc4)ns3)CC2)cc1 [Compound 200, 1-(4-propionyloxy)benzene-sulfonyl-4-[3-(4-fluoro-benzyl)-1,2,4-thiadiazol-5-yl]piperazine] | 0.051 µg/mL (≈ 0.104 µM) | 80% | – |
| Cc1ccc(Cc2nsc(N3CCN(C(=O)c4ccc(C(F)(F)F)cc4)CC3)n2)cc1 [Compound 171, 1-(4-trifluoromethylbenzoyl)-4-[3-(4-methylbenzyl)-1,2,4-thiadiazol-5-yl]piperazine] | – | 86% | – |
| Cc1ccc(Cc2nsc(N3CCN(C(=O)c4ccc(Cl)cc4)CC3)n2)cc1 [Compound 155, 1-(4-chlorobenzoyl)-4-[3-(4-methylbenzyl)-1,2,4-thiadiazol-5-yl]piperabine] | 1.64 µg/mL (≈ 3.97 µM) | 76% | – |
| O=C(NCCN1CCN(c2nc(Cc3ccccc3)ns2)CC1)c1cccc(F)c1 [Compound 106, 3-fluoro-N-{2-[4-[3-benzyl-1,2,4-thiadiazol-5-yl]piperazin-1-yl]ethyl}benzamide] | – | 49% | – |
| Cc1ccc(Cc2nsc(N3CCN(S(=O)(=O)c4ccc([N+](=O)[O-])cc4)C(C)C3)n2)cc1 (centres unmarked) [Compound 71, 1-[4-nitrophenylsulfonyl]-4-[3-(4-methylbenzyl)-1,2,4-thiadiazol-5-yl]-2-methylpiperazine] | – | 33% | – |
| CC(=O)Nc1ccc(S(=O)(=O)N2CCN(c3nc(Cc4ccc(F)cc4)ns3)CC2C)cc1 (centres unmarked) [Compound 55, 1-[4-acetamidophenylsulfonyl]-4-[3-(4-fluorobenzyl)-1,2,4-thiadiazol-5-yl]-2-methylpiperazine] | 0.0781 µg/mL (≈ 0.16 µM) | 114% | – |
| COc1ccccc1S(=O)(=O)N1CCN(c2nc(Cc3ccc(F)cc3)ns2)CC1 [Compound 195, 1-[2-methoxyphenylsulfonyl]-4-[3-(4-fluoro-benzyl)-1,2,4-thiadiazol-5-yl]piperazine] | 0.025 µg/mL (≈ 0.0557 µM) | 99% | – |
| O=C(c1ccc(F)cc1)N1CCN(c2nc(Cc3ccccc3)ns2)CC1 [Compound 163, 1-(4-fluorobenzoyl)-4-[3-benzyl-1,2,4-thiadiazol-5-yl]piperazine] | 3.61 µg/mL (≈ 9.44 µM) | 67% | – |
